This is an account of results in PMC6264193, “Synthesis and Biological Evaluation of Novel ^99mTc-Labelled Bisphosphonates as Superior Bone Imaging Agents” (Molecules, 2011).

The subject of one series is bone resorption. On the set-up: method as in PMID 18593621. The settings on record: preclinical models of bone resorption; cited from earlier work.

For the compound `Cc1nccn1CCC(O)(P(=O)(O)O)P(=O)(O)O` [Compound 4a, 1-Hydroxy-3-(2-methyl-1H-imidazol-1-yl)propane-1,1-diyldiphosphonic acid], the melting point lay in the range of 183 to 186 °C.
The same measure, in the same setting: for `Cc1nccn1CCCC(O)(P(=O)(O)O)P(=O)(O)O` [Compound 4b, 1-Hydroxy-4-(2-methyl-1H-imidazol-1-yl)butane-1,1-diyldiphosphonic acid] the value was 142 to 145 °C; for `Cc1nccn1CCCCC(O)(P(=O)(O)O)P(=O)(O)O` [Compound 4c, 1-Hydroxy-5-(2-methyl-1H-imidazol-1-yl)pentane-1,1-diyldiphosphonic acid], 212 to 215 °C.
Regarding `O=P(O)(O)C(O)(Cn1ccnc1)P(=O)(O)O` [ZL, 1-hydroxy-2-(imidazol-1-yl)-ethylidene-1,1-bisphosphonic acid], in the series on bone resorption, the “potency relative to clodronate and pamidronate” value is “at least 100 times”; the “potency relative to etidronate” value was “at least 1,000 times”.

The term melting point denotes the temperature, or range, at which the solid turns liquid.
